Measured values published in article PMC13462928 (Nature Communications, 2026).
Entries after “also recorded” stand apart in the source; their conditions may differ.

Columns and labels:
[1] = target: T1, NUDT5 (Homo sapiens, UniProt Q96SW2+Q9UKK9); test: Western blot NUDT5 degradation in HEK293 CRBN KO cells; assay type: cell-based; design: endogenous in cells; host or cells: HEK293 (CRBN KO); conditions: 100 nM, 20 h
Protocol: (§1) Pellets were lysed on ice using RIPA buffer (25 mM Tris (pH 7.5), 150 mM NaCl, 1% Igepal, 1% SDS, 0.1% SDC, 1x protease inhibitor (Roche, cOmplete mini, 11836170001), 1x phosphatase (Thermo Scientific, Halt, 78429), 0.1% benzonase (Merck, E1014-5KU)), incubated for 15 min and then centrifuged for 20 min at 4 °C at maximum speed in a table-top centrifuge. […] Membranes were blocked with 6% milk in PBS-T for 1 h at RT, washed, and then incubated with primary antibody diluted in PBS-T supplemented with 0.1% NaN3 overnight at 4 °C. Membranes were incubated with fluorophore-conjugated secondary antibodies, Alexa Fluor 680 anti-rabbit IgG (Life Technologies, A21109), Alexa Fluor 750 anti-mouse IgG (Life Technologies, A21037) diluted 1:5000 in 2% milk PBS-T, washed and imaged with an Odyssey imager (Licor).

[2] = tested on: HEK293 cells; test: Untargeted global proteomics of HEK293 cells; assay type: cell-based, human; conditions: 100 nM, 24 h; for total proteome analysis, downregulated proteins: 7135 quantified proteins
Protocol: (§2) Proteomics samples were digested with trypsin using STrap columns following the manufacturer’s protocol (C02-micro, ProtiFi). […] Then, the cell pellets were collected and lysed in 5% SDS containing 1 μL/mL benzonase (E1014, Millipore) and subsequently short sonication to shear genomic DNA (1×2 s pulse, 20% amplitude, microtip, Sonics Vibra Cell). 50 μg protein from the total cell lysate or 80% of the elution fraction of the chemical pulldown were first reduced by 20 mM dithiothreitol (M02712, Fluorochem), and alkylated by 40 mM iodoacetamide (I1149, Sigma). Phosphoric acid and S-Trap protein binding buffer were added to the sample lysates. Then, the SDS lysate/S-Trap buffer were loaded into a S-Trap column (C02-micro-80, ProtiFi). 1 μg of trypsin (V5111, Promega) was used to digest each sample at 37 °C for 20 h. The samples were then eluted and dried by vacuum centrifugation. Peptide pellets were resuspended in mass spectrometry-grade water with 2% acetonitrile (85188, Thermo Scientific) and 0.1% trifluoroacetic acid (85183, Thermo Scientific). The samples were injected into Orbitrap Fusion Lumos Tribrid Mass Spectrometer (Thermo Scientific). Sample acquisition was performed as previously described.
Raw data were searched against the human database (UP000005640, downloaded 08/21) using DIA-NN (v.1.8.1)[48] by enabling FASTA digest for library-free search and Deep learning-based spectra, RTs, and IMs prediction. Trypsin/P was selected for the in silico digestion of the provided FASTA file, allowing up to 2 missed cleavages. Fixed modifications included N-terminal methionine excision and cysteine carbamidomethylation. Variable modifications were methionine oxidation and N-terminal acetylation, with a maximum of one modification per precursor. Precursor FDR was kept at 1% and MBR enabled. The protein groups matrix was further analysed using Perseus (2.0.9.0)[49] or R studio (4.3.2). Potential contaminants were filtered against the top 300 most common Homo sapiens contaminants reported in CRAPome[50]. Proteins were removed if detected less than 70% across all runs. After column-wise normalisation by median subtraction, missing values were imputed by random numbers from a normal distribution (1.8 standard deviation, downshift width 0.3). Volcano plots were generated by calculating fold change and -log10(p-value) from an unpaired two-sided Student’s t-test.

[3] = target: NUDT5 and the respective E3 ligase (Homo sapiens, UniProt P40337+Q9UKK9); test: NanoBRET ternary complex formation assay NUDT5 and the respective E3 ligase (VHL or CRBN) in HEK293 cells; assay type: cell-based; conditions: Supplementary Table 2; for Ternary complex formation below 1 µM (4 h): HEK293, 4 h; for Ternary complex formation below 1 µM (20 h): HEK293, 20 h
Protocol: (§3) NanoBRET ternary complex assays were performed following the manufacturer’s instructions (Promega). […] After 4 h or 20 h of incubation, a mix of substrate in assay medium was added to each well. Donor and acceptor signals were measured in a PHERAstar FSX or FS plate reader and analyzed by GraphPad Prism (v.9 or v.10). The acceptor/donor ratio was calculated, the no ligand background signal was subtracted, and multiplied by 1000 to yield mBRET units. Data were then normalized to DMSO.

[4] = tested on: HAP1 cells; test: Titration of NUDT5 degraders and controls against fixed 6-TG (2 µg/mL) in HAP1 cells, cell viability; assay type: cell-based, human; conditions: for concentration of maximal rescue of cell viability / rescue of 6-TG-induced toxicity: HAP1, 2 µg/mL 6-TG, 72 h
Protocol: (§4) Cells were counted and adjusted to a density of 25,000 cells/mL in culture medium. […] Plates were sealed with breathable film and incubated at 37 °C with 5% CO₂ for 72 hours. Cell viability was assessed using the CellTiter-Glo Luminescent Cell Viability Assay, following the manufacturer’s protocol (Promega). Luminescence was measured using a PHERAstar FS or FSX plate reader, and data were analyzed using GraphPad Prism software (versions 9 or 10). Results were normalized to the vehicle control (DMSO).

[5] = target: T2, NUDT5 (Homo sapiens, UniProt Q9UKK9); test: Western blot NUDT5 degradation in HEK293 cells; assay type: cell-based; conditions: 20 h, Western blot, read-out: DC50 (half-maximal degradation concentration) of NUDT5
Protocol: as §1

[6] = target: T1, NUDT5; test: Western blot NUDT5 degradation in HEK293 cells; assay type: cell-based; conditions: for Dmax: 20 h, read-out: apparent Dmax of NUDT5 degradation
Protocol: as §1

[7] = tested on: HAP1 NUDT5 KO cells; test: Cell viability (CellTiter-Glo) 6-TG assay in HAP1 NUDT5 KO cells; assay type: cell-based, human; conditions: Fig. 1A
Protocol: (§5) HEK293, MCF7, A549 were cultured in DMEM + 10% FBS, HAP1 and HL-60 were cultured in IMDM + 10% FBS. All cell lines were maintained at 37 °C and 5% CO2.
as §4

[8] = tested on: HAP1 cell lines; test: TH1760/6-TG cell viability assay in HAP1 cell lines; assay type: cell-based, human
Protocol: After 72 h incubation, cell viability was measured using the CellTiter-Glo assay (Promega). Signals were normalized to the control condition.

[9] = tested on: HL-60 cells; test: Cell viability (CellTiter-Glo) 6-TG assay in HL-60 cells; assay type: cell-based, human
Protocol: as §5, §4

[10] = tested on: HAP1 cells; test: Cell viability (CellTiter-Glo) and 6-TG assay in HAP1 WT cells; assay type: cell-based, human
Protocol: as §5, §4

[11] = target: T2, NUDT5; test: NanoBRET NUDT5 target engagement (TE) assay in HEK293 cells; assay type: cell-based; design: expressed in transfected cells; host or cells: HEK293; conditions: for EC50: HEK293 cells, Supplementary Fig. 6B, read-out: NUDT5 NanoBRET target engagement EC50
[12] = tested on: HAP1 cells; test: Untargeted global proteomics of HAP1 cells; assay type: cell-based, human; conditions: 100 nM, 6 h and 24 h
Protocol: as §2, with “Peptide pellets were resuspended in mass spectrometry-grade water with 2% acetonitrile (85188, Thermo Scientific) and 0.1% trifluoroacetic acid (85183, Thermo Scientific). The samples were injected into Orbitrap Fusion Lumos Tribrid Mass Spectrometer (Thermo Scientific). Sample acquisition was performed as previously described.” left out
Raw data were searched against the human database (UP000005640, downloaded 08/21) using DIA-NN (v.1.8.1)[48] by enabling FASTA digest for library-free search and Deep learning-based spectra, RTs, and IMs prediction. […] The protein groups matrix was further analysed using Perseus (2.0.9.0)[49] or R studio (4.3.2). […] Proteins were removed if detected less than 70% across all runs. […]

[13] = target: T3, ZFP91 (Homo sapiens, UniProt Q96JP5); test: Western blot of ZFP91 levels in HEK293 and HAP1 cells; assay type: cell-based; conditions: 100 nM, 24 h
T3 construct: endogenous in cells; host or cells: HEK293 and HAP1
Protocol: as §1

[14] = target: T2, NUDT5; test: Western blot NUDT5 degradation in HAP1 cells; assay type: cell-based; design: endogenous in cells; host or cells: HAP1; conditions: HAP1 cells, Western blot; read-out: DC50 (half-maximal degradation concentration) of NUDT5
Protocol: as §1

[15] = target: T1, NUDT5; test: Western blot NUDT5 degradation in HAP1 cells; assay type: cell-based; design: endogenous in cells; host or cells: HAP1
Protocol: as §1

[16] = target: T1, NUDT5; test: Western blot NUDT5 degradation in A549 cells; assay type: cell-based; design: endogenous in cells; host or cells: HAP1, A549, MCF7; conditions: A549, MCF7 and HAP1, 100 nM, 20 h
Protocol: as §1

[17] = target: T4, NUDT5 and CRBN (Homo sapiens, UniProt Q96SW2+Q9UKK9); test: NanoBRET ternary complex formation assay NanoLuc-NUDT5 / HaloTag-CRBN in HEK293 cells; assay type: cell-based; conditions: intact HEK293 cells
T4 construct: expressed in transfected cells; host or cells: HEK293
Protocol: as §3

[18] = tested on: HAP1 cells; test: Metabolomics with isotopically labeled formate/adenosine in HAP1 cells; assay type: cell-based, human; conditions: HAP1, 100 nM, 13C-D formate 1 mM, 15N adenosine 100 µM, 24 h
Protocol: Experiments were performed in duplicates. Approximately 1.5 × 10^6 HAP1 wt and NUDT5 KO cells were seeded in IMDM (full) prior to treatment with isotopically labeled metabolites. […] After 24 h, plates were washed with PBS and replaced with IMDM containing dialysed FBS (Gibco). Cells were treated with 1 mM of isotopically labeled sodium formate (Eurisotop, CDLM-6203-0.25) or with 1 mM of isotopically labeled sodium and 100 µM isotopically labeled adenosine (Silantes, 125303601). After 24 h, 5 × 10^6 cells for each replicate was harvested, washed with PBS, immediately snap frozen and stored at −80 °C. Cell pellets were lysed with 150 µL ice-cold 80:20 MeOH:H2O, vortexed and sonicated for 5 minutes on ice. The extract was centrifuged for 10 minutes at 10,000 × g at 4 °C and the supernatant was collected in a glass insert vial. This procedure was repeated and the two supernatants were combined. Solvent was evaporated in a vacuum concentrator. Metabolites were reconstituted in 50 µL pure MeOH. A Vanquish UHPLC system (Thermo Scientific) coupled with an Orbitrap Q Exactive (Thermo Scientific) mass spectrometer was used for the LC-MS analysis. […] Quantification of target metabolites was performed by manually integrating the area under the curve, and data were plotted using GraphPad Prism v.10.

NUDT5 and the respective E3 ligase, sequence (P40337 whole entry, one chain of several): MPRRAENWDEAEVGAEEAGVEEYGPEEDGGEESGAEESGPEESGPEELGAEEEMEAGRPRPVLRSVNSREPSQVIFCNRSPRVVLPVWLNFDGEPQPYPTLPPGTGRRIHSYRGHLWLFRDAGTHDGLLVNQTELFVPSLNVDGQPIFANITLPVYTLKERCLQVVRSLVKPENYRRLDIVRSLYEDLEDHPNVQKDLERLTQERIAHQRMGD

Cn1c(=O)c2c(nc(N3CCN(C(=O)CCOCCOCCOCCNc4cccc5c4C(=O)N(C4CCC(=O)NC4=O)C5=O)CC3)n2Cc2nnc(-c3ccc(Cl)c(Cl)c3)o2)n(C)c1=O (stereo not drawn) [ASM127]
NUDT5 degradation in CRBN knockout cells [1]: CRBN knockout (KO) prevents PROTAC-mediated degradation of NUDT5 | effect on ZFP91 in global proteomics [2]: slight effect on the zinc finger protein ZFP91 | total proteome analysis, downregulated proteins [2]: NUDT5 as the most significantly downregulated protein | Ternary complex formation below 1 µM (4 h) [3]: Yes | Ternary complex formation below 1 µM (20 h) [3]: Yes | concentration of maximal rescue of cell viability [4]: 50 to 100 nM | DC50 [5]: 12 nM | Dmax ([6]; Western blot): 71%

Cn1c(=O)c2c(nc(N3CCN(C(=O)CCOCCOCCOCCOCCNc4cccc5c4C(=O)N(C4CCC(=O)NC4=O)C5=O)CC3)n2Cc2nnc(-c3ccc(Cl)c(Cl)c3)o2)n(C)c1=O (stereo not drawn) [ASM130]
NUDT5 degradation in CRBN knockout cells [1]: CRBN knockout (KO) prevents PROTAC-mediated degradation of NUDT5 | effect on ZFP91 in global proteomics [2]: slight effect on the zinc finger protein ZFP91 | total proteome analysis, downregulated proteins [2]: NUDT5 as the most significantly downregulated protein | Ternary complex formation below 1 µM (4 h) [3]: Yes | Ternary complex formation below 1 µM (20 h) [3]: Yes | concentration of maximal rescue of cell viability [4]: 50 to 100 nM | DC50 [5]: 7 nM | Dmax ([6]; Western blot): 75%

Nc1nc2nc[nH]c2c(=S)[nH]1 [Compound 6-TG, 6-Thioguanine]
increase in 6-TG IC50, NUDT5 KO versus NUDT5 WT [7]: four-fold increase | difference in 6-TG sensitivity, NUDT5 KO versus WT ([8]; HAP1, fixed TH1760 50 µM, 72 h, Fig. 4D): 2.8 fold | IC50 ([8]; Homo sapiens, HAP1 WT cells, approximately): ~1000 nM

Cn1c(=O)c2c(nc(N3CCNCC3)n2Cc2nnc(-c3ccc(Cl)c(Cl)c3)o2)n(C)c1=O [TH5427, reference compound]
rescue of 6-TG-induced toxicity [4]: failed to rescue cell viability; also recorded: no signiﬁcant eﬀect | ability to desensitize cells to 6-TG treatment (phenocopy NUDT5 KO) [9]: neither inhibitor was able to phenocopy the NUDT5 KO | ability to desensitize cells to 6-TG treatment (phenocopy NUDT5 KO) [10]: neither inhibitor was able to phenocopy the NUDT5 KO | EC50 [11]: 3 nM

Cn1c(=O)c2c(nc(N3CCN(C(=O)N4CCC(CN5CCN(c6ccc7c(c6)C(=O)N(C6CCC(=O)NC6=O)C7=O)CC5)CC4)CC3)n2Cc2nnc(-c3ccc(Cl)c(Cl)c3)o2)n(C)c1=O (stereo not drawn) [dNUDT5]
global proteome analysis, downregulated proteins [12]: NUDT5 was the only significantly downregulated protein | ZFP91 levels [13]: ZFP91 levels remained unchanged; also recorded: does not affect ZFP91 levels | concentration of maximal rescue of cell viability [4]: 50 to 100 nM | rescue of 6-TG-induced toxicity [4]: most efficient compound in abrogating 6-TG-induced cell death | boost of cancer cell viability in presence of 6-TG compared to TH5427 and DMSO control ([4]; peer review file): more than 8 fold | DC50 [14]: 0.3 nM | time course of NUDT5 degradation ([15]; 100 nM, up to 72 h): sustained degradation by dNUDT5 over a time course of 72 h | NUDT5 degradation ([15]; HAP1 cells, Western blot, Fig. 3B): induced robust degradation of endogenous NUDT5 protein | NUDT5 downregulation across a panel of cell lines [16]: robust and consistent NUDT5 downregulation | ternary complex formation between NUDT5 and CRBN in cells [17]: only dNUDT5 induced proficient ternary complex formation | de novo derived IMP [18]: apparent increase in de novo derived IMP | DC50 [5]: 0.5 nM | mechanism of degradation (rescue by neddylation, proteasome, NUDT5 inhibitors and CRBN KO) [6]: UPS-dependent | NUDT5 degradation ([6]; 100 nM, 6 h, Western blot, Supplementary Fig. 6A): induces degradation of NUDT5 | EC50 [11]: 37 nM | NUDT5 engagement in live cells ([11]; NanoBRET): engaged their cognate target NUDT5 in live cells
